Reference: US8741836B2, “Polypeptides” (Novo Nordisk A/S, priority 2011, dated 2014)
Starred links: 1 amine or outer side, 2 acyl side, 3 side chain; linkers in the order of their positions; H or OH if unused. Positions of bridges follow the written chain, without caps; N, C: chain ends. Residues, ends and D or L forms follow the SMILES beside them. *: point of attachment. C20 diacid = O=C(O)CCCCCCCCCCCCCCCCCCC(=O)*; γGlu = O=C(O)[C@H](CCC(=O)[*:2])N[*:1]

Test system: ad libitum fed rat
Test: Assay (I) efficacy testing on appetite (food intake) using an ad libitum fed rat model
Assay type: in vivo, Sprague Dawley (SD) rats
Text: In the following examples reference is made to the following Assays: • Assay (I)—Experimental protocol for efficacy testing on appetite using an ad libitum fed rat model • ASSAY (II)a—Functional assay—Human calcitonin and amylin receptor assay • ASSAY (II)b—Functional assay—Rat calcitonin and rat amylin receptor assays • ASSAY (III)—ThT fibrillation assays for the assessment of physical stability of protein formulations • ASSAY (IV)—Determination of solubility • ASSAY (V)—Determination of binding to the human amylin receptor • ASSAY (VI)—Determination of the binding to the rat amylin receptor • ASSAY (VII)—Determination of binding to the human calcitonin receptor • ASSAY (VIII)—Determination of binding to the rat calcitonin receptor • ASSAY (IX)—pK—Determination of T½ in mini-pig • ASSAY (X)—pK—Determination of T½ in rat Assay (I)—Experimental protocol for Efficacy Testing on Appetite Using an Ad Libitum Fed Rat Model
Sprague Dawley (SD) rats from Taconic Europe, Denmark are used for the experiments. The rats have a body weight 200-250 g at the start of experiment. The rats arrive at least 10-14 days before start of experiment to allow acclimatization to experimental settings. During this period the animals are handled at least 2 times. After arrival rats are housed individually for one week in a reversed light/dark phase (meaning that lights are off during daytime and on during nighttime) […]. Since rats are normally active and eat their major part of their daily food intake during the dark period, rats are dosed in the morning right before lights are turned off. This set-up results in the lowest data variation and highest test sensitivity. The experiment is conducted in the rats' home cages and rats have free access to food and water throughout the acclimatization period and the experiment period. Each dose of derivative is tested in a group of 5-8 rats. A vehicle group of 6-8 rats is included in each set of testing. Rats are dosed once according to body weight with a 0.01-3 mg/kg solution administered intraperitoneally (ip), orally (po) or subcutaneously (sc). The time of dosing is recorded for each group. After dosing, the rats are returned to their home cages, where they then have access to food and water. The food consumption is recorded individually continuously by on-line registration or manually every hour for 7 hours, and then after 24 h and sometimes 48 h. At the end of the experimental session, the animals are euthanised.
The individual data are recorded in Microsoft excel sheets. Outliers are excluded after applying the Grubbs statistical evaluation test for outliers, and the result is presented graphically using the GraphPad Prism program.

Compound | Food intake reduction 0-24 h 3 nmol/kg (%) (0-24 h) | Food intake reduction 24-48 h 3 nmol/kg (%) (24-48 h) | Food intake reduction 0-24 h 30 nmol/kg (%) (30 nmol/kg, 0-24 h) | Food intake reduction 24-48 h 30 nmol/kg (%) (30 nmol/kg, 24-48 h)
CC[C@H](C)[C@H](NC(=O)[C@@H]1CCCN1C(=O)CNC(=O)[C@H](Cc1ccccc1)NC(=O)[C@H](CC(N)=O)NC(=O)[C@H](CC(N)=O)NC(=O)[C@H](CO)NC(=O)[C@H](CO)NC(=O)[C@H](Cc1c[nH]cn1)NC(=O)[C@H](Cc1c[nH]cn1)NC(=O)[C@H](CC(C)C)NC(=O)[C@H](Cc1ccccc1)NC(=O)[C@H](CCC(=O)O)NC(=O)[C@H](C)NC(=O)[C@H](CC(C)C)NC(=O)[C@H](CCCNC(=N)N)NC(=O)[C@H](CCC(N)=O)NC(=O)[C@@H](NC(=O)[C@H](C)NC(=O)[C@@H]1CSSC[C@H](NC(=O)[C@H](Cc2c[nH]cn2)NC(=O)CC[C@H](NC(=O)CCCCCCCCCCCCCCCCCCC(=O)O)C(=O)O)C(=O)N[C@@H](CC(N)=O)C(=O)N[C@@H]([C@@H](C)O)C(=O)N[C@@H](C)C(=O)N[C@@H]([C@@H](C)O)C(=O)N1)[C@@H](C)O)C(=O)N[C@@H](CC(C)C)C(=O)N1CCC[C@H]1C(=O)N1CCC[C@H]1C(=O)N[C@H](C(=O)N[C@@H](CC(N)=O)C(=O)N[C@H](C(=O)NCC(=O)N[C@@H](CO)C(=O)N[C@@H](CC(N)=O)C(=O)N[C@H](C(=O)N1CCC[C@H]1C(N)=O)[C@@H](C)O)C(C)C)[C@@H](C)O [Example 84, N-alpha-[(S)-4-Carboxy-4-(19-carboxynonadecanoylamino)butyryl]-[His1,Glu14,His17,Pro37]-pramlintide] ({C20 diacid-γGlu}-HCNTATCATQRLAEFLHHSSNNFGPILPPTNVGSNTP-NH2; disulfide 2-7 (inferred)) | 68 | 67 |  | 
CC[C@H](C)[C@H](NC(=O)[C@@H]1CCCN1C(=O)CNC(=O)[C@H](Cc1ccccc1)NC(=O)[C@H](CC(N)=O)NC(=O)[C@H](CC(N)=O)NC(=O)[C@H](CO)NC(=O)[C@H](CO)NC(=O)[C@H](Cc1c[nH]cn1)NC(=O)[C@H](Cc1c[nH]cn1)NC(=O)[C@H](CC(C)C)NC(=O)[C@H](Cc1ccccc1)NC(=O)[C@H](CCC(=O)O)NC(=O)[C@H](C)NC(=O)[C@H](CC(C)C)NC(=O)[C@H](CCCNC(=N)N)NC(=O)[C@H](CCC(N)=O)NC(=O)[C@@H](NC(=O)[C@H](C)NC(=O)[C@@H]1CSSC[C@H](NC(=O)CC[C@H](NC(=O)CCCCCCCCCCCCCCCCCCC(=O)O)C(=O)O)C(=O)N[C@@H](CC(N)=O)C(=O)N[C@@H]([C@@H](C)O)C(=O)N[C@@H](C)C(=O)N[C@@H]([C@@H](C)O)C(=O)N1)[C@@H](C)O)C(=O)N[C@@H](CC(C)C)C(=O)N1CCC[C@H]1C(=O)N1CCC[C@H]1C(=O)N[C@H](C(=O)N[C@@H](CC(N)=O)C(=O)N[C@H](C(=O)NCC(=O)N[C@@H](CO)C(=O)N[C@@H](CC(N)=O)C(=O)N[C@H](C(=O)N[C@@H](Cc1ccc(O)cc1)C(N)=O)[C@@H](C)O)C(C)C)[C@@H](C)O [Example 28, N-alpha-[(S)-4-Carboxy-4-(19-carboxynonadecanoylamino)butyryl]-[des1,Glu14,His17]-pramlintide] ({C20 diacid-γGlu}-CNTATCATQRLAEFLHHSSNNFGPILPPTNVGSNTY-NH2; disulfide 1-6) | 39 | 36 |  | 
CC[C@H](C)[C@H](NC(=O)[C@@H]1CCCN1C(=O)CNC(=O)[C@H](Cc1ccccc1)NC(=O)[C@H](CC(N)=O)NC(=O)[C@H](CC(N)=O)NC(=O)[C@H](CO)NC(=O)[C@H](CO)NC(=O)[C@H](Cc1c[nH]cn1)NC(=O)[C@H](Cc1c[nH]cn1)NC(=O)[C@H](CC(C)C)NC(=O)[C@H](Cc1ccccc1)NC(=O)[C@H](CCC(=O)O)NC(=O)[C@H](C)NC(=O)[C@H](CC(C)C)NC(=O)[C@H](CCCNC(=N)N)NC(=O)[C@H](CCC(N)=O)NC(=O)[C@@H](NC(=O)[C@H](C)NC(=O)[C@@H]1CSSC[C@H](NC(=O)[C@H](Cc2c[nH]cn2)NC(=O)[C@H](Cc2c[nH]cn2)NC(=O)[C@H](Cc2c[nH]cn2)NC(=O)CC[C@H](NC(=O)CCCCCCCCCCCCCCCCCCC(=O)O)C(=O)O)C(=O)N[C@@H](CC(N)=O)C(=O)N[C@@H]([C@@H](C)O)C(=O)N[C@@H](C)C(=O)N[C@@H]([C@@H](C)O)C(=O)N1)[C@@H](C)O)C(=O)N[C@@H](CC(C)C)C(=O)N1CCC[C@H]1C(=O)N1CCC[C@H]1C(=O)N[C@H](C(=O)N[C@@H](CC(N)=O)C(=O)N[C@H](C(=O)NCC(=O)N[C@@H](CO)C(=O)N[C@@H](CC(N)=O)C(=O)N[C@H](C(=O)N[C@@H](Cc1ccc(O)cc1)C(N)=O)[C@@H](C)O)C(C)C)[C@@H](C)O [Example 11, N-alpha-[(S)-4-Carboxy-4-(19-carboxynonadecanoylamino)butyryl]-His-His-[His1,Glu14,His17]-pramlintide] ({C20 diacid-γGlu}-HHHCNTATCATQRLAEFLHHSSNNFGPILPPTNVGSNTY-NH2; disulfide 4-9 (inferred); C-terminus assumed) |  |  | 87 | 92
CC[C@H](C)[C@H](NC(=O)[C@@H]1CCCN1C(=O)CNC(=O)[C@H](Cc1ccccc1)NC(=O)[C@H](CC(N)=O)NC(=O)[C@H](CC(N)=O)NC(=O)[C@H](CO)NC(=O)[C@H](CO)NC(=O)[C@H](Cc1c[nH]cn1)NC(=O)[C@H](Cc1c[nH]cn1)NC(=O)[C@H](CC(C)C)NC(=O)[C@H](Cc1ccccc1)NC(=O)[C@H](CCC(=O)O)NC(=O)[C@H](C)NC(=O)[C@H](CC(C)C)NC(=O)[C@H](CCCNC(=N)N)NC(=O)[C@H](CCC(N)=O)NC(=O)[C@@H](NC(=O)[C@H](C)NC(=O)[C@@H]1CSSC[C@H](NC(=O)[C@H](CCC(=O)O)NC(=O)CC[C@H](NC(=O)CCCCCCCCCCCCCCCCCCC(=O)O)C(=O)O)C(=O)N[C@@H](CC(N)=O)C(=O)N[C@@H]([C@@H](C)O)C(=O)N[C@@H](C)C(=O)N[C@@H]([C@@H](C)O)C(=O)N1)[C@@H](C)O)C(=O)N[C@@H](CC(C)C)C(=O)N1CCC[C@H]1C(=O)N1CCC[C@H]1C(=O)N[C@H](C(=O)N[C@@H](CC(N)=O)C(=O)N[C@H](C(=O)NCC(=O)N[C@@H](CO)C(=O)N[C@@H](CC(N)=O)C(=O)N[C@H](C(=O)N[C@@H](Cc1ccc(O)cc1)C(N)=O)[C@@H](C)O)C(C)C)[C@@H](C)O [Example 29, N-alpha-[(S)-4-Carboxy-4-(19-carboxynonadecanoylamino)butyryl]-[Glu1,Glu14,His17]-pramlintide] ({C20 diacid-γGlu}-ECNTATCATQRLAEFLHHSSNNFGPILPPTNVGSNTY-NH2; disulfide 2-7 (inferred); C-terminus assumed) | 15 | 5 |  | 
CC[C@H](C)[C@H](NC(=O)[C@@H]1CCCN1C(=O)CNC(=O)[C@H](Cc1ccccc1)NC(=O)[C@H](CC(N)=O)NC(=O)[C@H](CC(N)=O)NC(=O)[C@H](CO)NC(=O)[C@H](CO)NC(=O)[C@H](Cc1c[nH]cn1)NC(=O)[C@H](Cc1c[nH]cn1)NC(=O)[C@H](CC(C)C)NC(=O)[C@H](Cc1ccccc1)NC(=O)[C@H](CCC(=O)O)NC(=O)[C@H](C)NC(=O)[C@H](CC(C)C)NC(=O)[C@H](CCCNC(=N)N)NC(=O)[C@H](CCC(N)=O)NC(=O)[C@@H](NC(=O)[C@H](C)NC(=O)[C@@H]1CSSC[C@H](NC(=O)[C@H](CCCCN)NC(=O)[C@H](CCC(=O)O)NC(=O)CC[C@H](NC(=O)CCCCCCCCCCCCCCCCCCC(=O)O)C(=O)O)C(=O)N[C@@H](CC(N)=O)C(=O)N[C@@H]([C@@H](C)O)C(=O)N[C@@H](C)C(=O)N[C@@H]([C@@H](C)O)C(=O)N1)[C@@H](C)O)C(=O)N[C@@H](CC(C)C)C(=O)N1CCC[C@H]1C(=O)N1CCC[C@H]1C(=O)N[C@H](C(=O)N[C@@H](CC(N)=O)C(=O)N[C@H](C(=O)NCC(=O)N[C@@H](CO)C(=O)N[C@@H](Cc1c[nH]cn1)C(=O)N[C@H](C(=O)N[C@@H](Cc1ccc(O)cc1)C(N)=O)[C@@H](C)O)C(C)C)[C@@H](C)O [Example 56, N-alpha-[(S)-4-Carboxy-4-(19-carboxynonadecanoylamino)butyryl]-Glu-[Glu14,His17,His35]-pramlintide] ({C20 diacid-γGlu}-EKCNTATCATQRLAEFLHHSSNNFGPILPPTNVGSHTY-NH2; disulfide 3-8) | 46 | 21 |  | 
